Measured values published in US20230312577A1, “DUAL KINASE-BROMODOMAIN INHIBITORS” (MONASH UNIVERSITY, priority 2020, published 2023).

What was measured:
[1] = target: GST-BRD4 (binding domain 1, amino acids 44-168) (Homo sapiens, UniProt O60885); assay: Bromodomain binding assay (FRET); details: for IC50: BRD4 binding domain 1, tetracetylated histone 4 peptide
Protocol: Inhibition of bromodomain binding was measured using a FRET (fluorescence resonance energy transfer) based assay. […] In the presence of the two detection reagents, streptavidin D2 and anti-GST-Eu (CisBio) binding trig-gers a FRET signal detected by fluorescence at 665 nm as measured using a Pherastar reader (BMG Labtech). Data was analysed using GraphPad Prism version 8.00 for Windows, (GraphPad Software, San Diego California USA) in order to calculate the IC50. Standard deviations for the calculated IC50's are within 25% of the mean.

OPM2 cells = assay: Cell proliferation assay (ViaLight, cellular ATP); type: cell-based; details: Homo sapiens, OPM-2, 120 h, 5 days, 5 μM to 1 nM
How it was run: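 1×10^3 cells per well exposed to compounds at final 5 μM to 1 nM for 5 days. Viability read as cellular ATP by ViaLight luminescence, technical triplicates. GI50 computed from the dose–response.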

PI3K [2] = target: T1, PI3K; assay: PI3K enzyme activity assay (luminescence, ATP consumption, Kinase-Glo); type: biochemical; details: 10 μM ATP, 180 μM phosphatidyl inositol, 60 min
T1 construct: PI3K Enzyme Activity Assay IC50 (nM); other: 10 μM ATP, 180 μM phosphatidyl inositol, 60 min
Protocol: (§1) PI3K activity was determined using a luminescence assay measuring ATP consumption as described previously (J.-A. Pinson, Z. Zheng, M. S. Miller, D. K. Chalmers, I. G. Jennings, P. E. Thompson, L-Aminoacyl-triazine derivatives are isoform-selective PI3Kβ inhibitors that target nonconserved Asp862 of PI3Kb, ACS Med. Chem. Lett. 4 (2013) 206-210). PI3K enzyme activity was determined in 25 μl of 20 mM HEPES pH 7.5, 5 mM MgCl2 with 180 μM phosphatidyl inositol and 10 μMATP. After a 60 min incubation at room temperature the reaction was stopped by the addition of Kinase-Glo (Promega) followed by a further 15 min incubation. Luminescence was then read using a Fluostar plate reader (BMGLabtech).
(§2) Inhibitors were diluted in 20% (v/v) DMSO at the indicated concentrations in order to generate a concentration versus inhibition of enzyme activity curve which was then analysed using GraphPad Prism version 8.00 for Windows, (GraphPad Software, San Diego California USA) in order to calculate the IC50. Standard deviations for the calculated IC50's are within 25% of the mean.

PI3K [3] = assay: as above; type: biochemical
Protocol: as §1, §2

[4] = test system: MLL-AF9 cells (IBET-151-sensitive and IBET-151-resistant); assay: Apoptosis assay in BET-inhibitor-resistant cells (Annexin V/PI); type: cell-based, mouse; details: 1 μM, 72 h
Protocol: Mouse AML cells; MLL-AF9 (IBET-151-sensitive and IBET-151-resistant) (5×10^4) were treated with indicated compounds for 72 h. Apoptotic analysis was performed by flow cytometry using Annexin V/propidium iodide (PI) stains. Data were collected on a BD LSR-Fortessa X20 (BD Biosciences) and analysed using FlowJo Software, version 10.0.7 (Tree Star). IC50 were calculated using the GraphPad Prism Software Version 7.0c. Data are representative of biological triplicates.

| IC50 [1] | IC50 (PI3K [2]) | selectivity (PI3K) (PI3K [3]) | selectivity (BRD-4) [1] | Structure (SMILES) | GI50 (OPM2 cells) | apoptosis in I-BET151-resistant MLL-AF9 cells [4] |
| --- | --- | --- | --- | --- | --- | --- |
| ≤ 0.1 µM | ≤ 0.1 µM | – | – | CC(=O)N1c2ccc(-c3ccc(C(=O)NCCCNC(=O)c4cn5cc(-c6cnc(N)nc6)nc(N6CCOCC6)c5n4)cc3)cc2CC[C@@H]1C [Cpd 013, (S)-N-(3-(4-(1-Acetyl-2-methyl-1,2,3,4-tetrahydroquinolin-6-yl)benzamido)propyl)-6-(2-aminopyrimidin-5-yl)-8-morpholinoimidazo[1,2-a]pyrazine-2-carboxamide] | > 0.5 µM | – |
| – | – | selective PI3K inhibitor | – | CC(=O)N1c2ccc(-c3ccc(CNC(=O)c4cn5cc(-c6cnc(N)nc6)nc(N6CCOCC6)c5n4)cc3)cc2CC[C@H]1C [Cpd 034, (R)-N-(4-(1-acetyl-2-methyl-1,2,3,4-tetrahydroquinolin-6-yl)benzyl)-6-(2-aminopyrimidin-5-yl)-8-morpholinoimidazo[1,2-a]pyrazine-2-carboxamide] | – | – |
| – | – | – | selective BRD-4 inhibitor | CC(=O)N1c2ccc(-c3ccc(CNC(=O)c4cn5cc(-c6cnc(N)nc6)nc(N6CCNCC6)c5n4)cc3)cc2CC[C@@H]1C.Cl [Cpd 035, (S)-N-(4-(1-acetyl-2-methyl-1,2,3,4-tetrahydroquinolin-6-yl)benzyl)-6-(2-aminopyrimidin-5-yl)-8-(piperazin-1-yl)imidazo[1,2-a]pyrazine-2-carboxamide hydrochloride] | ≤ 0.1 µM | – |
| – | – | – | – | COc1cc2c(cc1-c1c(C)noc1C)ncc1[nH]c(=O)n([C@H](C)c3ccccn3)c12 [I-BET151, reference compound] | – | resistance to I-BET151 drug in the resistant cells was confirmed |
| > 0.5 µM | ≤ 0.1 µM | – | – | CC(=O)N1c2ccc(-c3ccc(C(=O)CNC(=O)c4cn5cc(-c6cnc(N)nc6)nc(N6CCOCC6)c5n4)cc3)cc2CCC1C (centres unmarked) [Cpd 008, N-(2-(4-(1-Acetyl-2-methyl-1,2,3,4-tetrahydroquinolin-6-yl)phenyl)-2-oxoethyl)-6-(2-aminopyrimidin-5-yl)-8-morpholinoimidazo[1,2-a]pyrazine-2-carboxamide] | – | – |
| 0.1 to 0.5 µM | ≤ 0.1 µM | – | – | CC(=O)N1c2ccc(-c3ccc(CNC(=O)c4cn5cc(-c6cnc(N)nc6)nc(N6CCOCC6)c5n4)cc3)cc2CCC1C (centres unmarked) [Cpd 002, N-(4-(1-Acetyl-2-methyl-1,2,3,4-tetrahydroquinolin-6-yl)benzyl)-6-(2-aminopyrimidin-5-yl)-8-morpholinoimidazo[1,2-a]pyrazine-2-carboxamide] | ≤ 0.1 µM | – |
| > 0.5 µM | > 0.5 µM | – | – | CC(=O)N1c2ccc(-c3ccc(C(=O)N4CCN(C(=O)c5cn6cc(-c7cnc(N)nc7)nc(N7CCOCC7)c6n5)CC4)cc3)cc2CCC1C (centres unmarked) [Cpd 001, 1-(6-(4-(4-(6-(2-Aminopyrimidin-5-yl)-8-morpholinoimidazo[1,2-a]pyrazine-2-carbonyl)piperazine-1-carbonyl)phenyl)-2-methyl-3,4-dihydroquinolin-1(2H)-yl)ethan-1-one] | 0.1 to 0.5 µM | – |
| > 0.5 µM | ≤ 0.1 µM | – | – | CC(=O)N1c2ccc(-c3ccc(C(=O)CN4CCN(C(=O)c5cn6cc(-c7cnc(N)nc7)nc(N7CCOCC7)c6n5)CC4)cc3)cc2CCC1C (centres unmarked) [Cpd 007, 1-(4-(1-acetyl-2-methyl-1,2,3,4-tetrahydroquinolin-6-yl)phenyl)-2-(4-(6-(2-aminopyrimidin-5-yl)-8-morpholinoimidazo[1,2-a]pyrazine-2-carbonyl)piperazin-1-yl)ethan-1-one] | – | – |
| 0.1 to 0.5 µM | ≤ 0.1 µM | – | – | CC(=O)N1c2ccc(-c3ccc(CNC(=O)c4cn5cc(-c6cnc(N)nc6)nc(N6CCOCC6)c5n4)s3)cc2CCC1C (centres unmarked) [Cpd 005, N-((5-(1-Acetyl-2-methyl-1,2,3,4-tetrahydroquinolin-6-yl)thiophen-2-yl)methyl)-6-(2-aminopyrimidin-5-yl)-8-morpholinoimidazo[1,2-a]pyrazine-2-carboxamide] | ≤ 0.1 µM | – |
| > 0.5 µM | ≤ 0.1 µM | – | – | CC(=O)N1c2ccc(-c3ccc(CNC(=O)CNC(=O)c4cn5cc(-c6cnc(N)nc6)nc(N6CCOCC6)c5n4)cc3)cc2CCC1C (centres unmarked) [Cpd 003, N-(2-((4-(1-Acetyl-2-methyl-1,2,3,4-tetrahydroquinolin-6-yl)benzyl)amino)-2-oxoethyl)-6-(2-aminopyrimidin-5-yl)-8-morpholinoimidazo[1,2-a]pyrazine-2-carboxamide] | 0.1 to 0.5 µM | – |
| ≤ 0.1 µM | 0.1 to 0.5 µM | – | – | CC(=O)N1c2ccc(-c3ccc(C(=O)NCCNC(=O)c4cn5cc(-c6cnc(N)nc6)nc(N6CCOCC6)c5n4)cc3)cc2CCC1C (centres unmarked) [Cpd 009, N-(2-(4-(1-Acetyl-2-methyl-1,2,3,4-tetrahydroquinolin-6-yl)benzamido)ethyl)-6-(2-ami-nopyrimidin-5-yl)-8-morpholinoimidazo[1,2-a]pyrazine-2-carboxamide] | ≤ 0.1 µM | – |
| – | 0.1 to 0.5 µM | – | – | CC(=O)N1c2ccc(-c3ccc(C(=O)NCCNC(=O)c4cc5nc(-c6cnc(N)nc6)nc(N6CCOCC6)c5s4)cc3)cc2CC[C@@H]1C [Cpd 031, (S)-N-(2-(4-(1-Acetyl-2-methyl-1,2,3,4-tetrahydroquinolin-6-yl)benzamido)ethyl)-2-(2-aminopyrimidin-5-yl)-4-morpholinothieno[3,2-d]pyrimidine-6-carboxamide] | ≤ 0.1 µM | – |
| – | > 0.5 µM | – | – | CC(=O)N1c2ccc(-c3ccc(CNC(=O)c4sc5c(N6CCOCC6)nc(-c6cnc(N)nc6)nc5c4C)cc3)cc2CC[C@@H]1C [Cpd 032, (S)-N-(4-(1-acetyl-2-methyl-1,2,3,4-tetrahydroquinolin-6-yl)benzyl)-2-(2-aminopyrimidin-5-yl)-7-methyl-4-morpholinothieno[3,2-d]pyrimidine-6-carboxamide] | ≤ 0.1 µM | – |
| 0.1 to 0.5 µM | 0.1 to 0.5 µM | – | – | CC(=O)N1c2ccc(-c3ccc(CN4CCN(C(=O)c5cn6cc(-c7cnc(N)nc7)nc(N7CCOCC7)c6n5)CC4)s3)cc2CCC1C (centres unmarked) [Cpd 004, 1-(6-(5-((4-(6-(2-Aminopyrimidin-5-yl)-8-morpholinoimidazo[1,2-a]pyrazine-2-carbonyl)piperazin-1-yl)methyl)thiophen-2-yl)-2-methyl-3,4-dihydroquinolin-1(2H)-yl)ethan-1-one] | – | – |
